According to patent US12258328B2, “6-membered heteroaryl-containing aminopyridine compounds as EGFR inhibitors” (YUHAN CORPORATION, priority 2021, dated 2025):
Where two headings read alike, the source gives them in different places.

Columns and labels:
EGFR wildtype = EGFR wildtype (Homo sapiens, UniProt P00533); test: Biochemical EGFR kinase assay (Lance Ultra TR-FRET), wildtype
Summary of the method: (§1)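 Step 1: compound in kinase buffer, 0.003–10 μM. Step 2: kinase reaction 1 h at room temperature. Step 4: TR-FRET read at 615/665 nm; IC50 calculated.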

EGFR L858R/T790M/C797S = EGFR L858R/T790M/C797S (Homo sapiens, UniProt P00533, C797S/L858R/T790M); test: Biochemical EGFR kinase assay (Lance Ultra TR-FRET), triple mutant L858R/T790M/C797S
Summary of the method: as §1

EGFR L858R/C797S = EGFR L858R/C797S (Homo sapiens, UniProt P00533, C797S/L858R); test: Biochemical EGFR kinase assay (Lance Ultra TR-FRET), double mutant L858R/C797S
Summary of the method: as §1

EGFR del19/C797S = EGFR del19/C797S (Homo sapiens, UniProt P00533, C797S/DEL746-750); test: Biochemical EGFR kinase assay (Lance Ultra TR-FRET), double mutant del19/C797S
Summary of the method: as §1

EGFR del19/T790M/C797S = EGFR del19/T790M/C797S (Homo sapiens, UniProt P00533, C797S/DEL746-750/T790M); test: Biochemical EGFR kinase assay (Lance Ultra TR-FRET), triple mutant del19/T790M/C797S
Summary of the method: as §1

[1] = IC50 L858R/T790M/C797S, 100 μM ATP
[2] = IC50 del19/T790M/C797S, 100 μM ATP
[3] = IC50 WT (nM) 100 μM ATP, 100 μM ATP
[4] = IC50 L858R/T790M/C797S (nM) 100 μM ATP, 100 μM ATP
[5] = IC50 L858R/C797S (nM) 100 μM ATP, 100 μM ATP
[6] = IC50 del19/C797S (nM) 100 μM ATP, 100 μM ATP
[7] = IC50 del19/T790M/C797S (nM) 100 μM ATP, 100 μM ATP
[8] = Km ATP, read-out: IC50 WT (nM) Km ATP
[9] = Km ATP, read-out: IC50 L858R/T790M/C797S (nM) Km ATP
[10] = Km ATP, read-out: IC50 L858R/C797S (nM) Km ATP
[11] = Km ATP, read-out: IC50 del19/C797S (nM) Km ATP
[12] = Km ATP, read-out: IC50 del19/T790M/C797S (nM) Km ATP

Sequence of EGFR del19/T790M/C797S (P00533 with tags, fused parts or gaps DEL746-750/T790M/C797S): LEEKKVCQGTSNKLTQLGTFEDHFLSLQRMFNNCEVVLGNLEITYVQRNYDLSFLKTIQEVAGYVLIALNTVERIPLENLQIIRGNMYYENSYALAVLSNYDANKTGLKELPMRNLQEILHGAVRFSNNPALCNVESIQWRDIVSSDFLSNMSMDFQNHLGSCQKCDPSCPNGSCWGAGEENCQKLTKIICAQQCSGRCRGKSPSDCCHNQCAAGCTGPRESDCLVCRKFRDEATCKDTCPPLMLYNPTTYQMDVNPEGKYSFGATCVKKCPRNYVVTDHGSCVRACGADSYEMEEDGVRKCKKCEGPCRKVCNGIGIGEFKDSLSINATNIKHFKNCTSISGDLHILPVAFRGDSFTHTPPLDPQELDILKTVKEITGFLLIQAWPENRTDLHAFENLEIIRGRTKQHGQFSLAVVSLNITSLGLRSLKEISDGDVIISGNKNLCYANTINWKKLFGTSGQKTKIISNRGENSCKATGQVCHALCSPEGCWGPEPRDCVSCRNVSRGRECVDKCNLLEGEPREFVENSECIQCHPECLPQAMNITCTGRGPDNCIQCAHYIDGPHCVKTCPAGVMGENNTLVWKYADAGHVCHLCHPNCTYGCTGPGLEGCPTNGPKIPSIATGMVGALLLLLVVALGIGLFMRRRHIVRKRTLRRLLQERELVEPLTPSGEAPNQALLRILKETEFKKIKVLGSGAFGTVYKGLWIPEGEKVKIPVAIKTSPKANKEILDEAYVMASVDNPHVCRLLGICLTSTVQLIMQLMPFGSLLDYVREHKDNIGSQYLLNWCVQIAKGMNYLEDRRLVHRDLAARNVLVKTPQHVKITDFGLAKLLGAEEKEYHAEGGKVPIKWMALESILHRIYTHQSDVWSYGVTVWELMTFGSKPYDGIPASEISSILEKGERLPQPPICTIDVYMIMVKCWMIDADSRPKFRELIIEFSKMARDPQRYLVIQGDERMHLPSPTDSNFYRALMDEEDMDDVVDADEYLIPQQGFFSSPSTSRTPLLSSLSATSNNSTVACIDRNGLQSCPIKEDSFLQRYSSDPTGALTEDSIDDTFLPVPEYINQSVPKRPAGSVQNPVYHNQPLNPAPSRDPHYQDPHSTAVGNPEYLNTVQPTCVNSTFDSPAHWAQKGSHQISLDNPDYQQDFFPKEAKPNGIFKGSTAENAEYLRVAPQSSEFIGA
Sequence of EGFR wildtype (P00533 25-1210): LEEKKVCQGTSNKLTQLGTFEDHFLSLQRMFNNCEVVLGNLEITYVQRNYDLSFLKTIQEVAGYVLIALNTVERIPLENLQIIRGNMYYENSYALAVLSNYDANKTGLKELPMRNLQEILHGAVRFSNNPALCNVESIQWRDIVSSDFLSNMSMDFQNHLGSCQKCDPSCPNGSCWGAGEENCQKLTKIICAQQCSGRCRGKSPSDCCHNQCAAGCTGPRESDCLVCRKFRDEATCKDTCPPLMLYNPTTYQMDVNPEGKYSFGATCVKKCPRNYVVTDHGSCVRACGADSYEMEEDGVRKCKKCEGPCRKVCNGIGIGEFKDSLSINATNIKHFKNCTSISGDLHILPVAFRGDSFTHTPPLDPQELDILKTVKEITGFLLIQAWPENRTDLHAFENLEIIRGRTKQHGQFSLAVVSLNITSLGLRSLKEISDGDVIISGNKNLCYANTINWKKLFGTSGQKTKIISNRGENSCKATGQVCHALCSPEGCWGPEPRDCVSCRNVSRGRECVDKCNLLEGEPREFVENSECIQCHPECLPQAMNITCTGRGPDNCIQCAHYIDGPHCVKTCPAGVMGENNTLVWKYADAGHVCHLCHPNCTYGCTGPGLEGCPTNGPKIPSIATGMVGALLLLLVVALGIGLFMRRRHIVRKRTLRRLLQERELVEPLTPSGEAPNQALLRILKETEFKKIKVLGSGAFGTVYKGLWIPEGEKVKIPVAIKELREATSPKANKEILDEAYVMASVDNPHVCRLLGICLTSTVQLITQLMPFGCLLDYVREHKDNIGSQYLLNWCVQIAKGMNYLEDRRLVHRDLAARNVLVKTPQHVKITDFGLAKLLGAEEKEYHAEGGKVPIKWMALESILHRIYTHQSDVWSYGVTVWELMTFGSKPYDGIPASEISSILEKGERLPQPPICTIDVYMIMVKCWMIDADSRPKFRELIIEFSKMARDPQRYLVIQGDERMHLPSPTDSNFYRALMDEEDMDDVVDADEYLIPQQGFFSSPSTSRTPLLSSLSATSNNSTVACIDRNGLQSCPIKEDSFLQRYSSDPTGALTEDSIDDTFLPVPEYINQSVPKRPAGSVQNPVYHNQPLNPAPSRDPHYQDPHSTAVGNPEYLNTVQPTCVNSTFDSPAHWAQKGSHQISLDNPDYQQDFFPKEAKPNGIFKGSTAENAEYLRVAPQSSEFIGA
Sequence of EGFR del19/C797S (P00533 with tags, fused parts or gaps DEL746-750/C797S): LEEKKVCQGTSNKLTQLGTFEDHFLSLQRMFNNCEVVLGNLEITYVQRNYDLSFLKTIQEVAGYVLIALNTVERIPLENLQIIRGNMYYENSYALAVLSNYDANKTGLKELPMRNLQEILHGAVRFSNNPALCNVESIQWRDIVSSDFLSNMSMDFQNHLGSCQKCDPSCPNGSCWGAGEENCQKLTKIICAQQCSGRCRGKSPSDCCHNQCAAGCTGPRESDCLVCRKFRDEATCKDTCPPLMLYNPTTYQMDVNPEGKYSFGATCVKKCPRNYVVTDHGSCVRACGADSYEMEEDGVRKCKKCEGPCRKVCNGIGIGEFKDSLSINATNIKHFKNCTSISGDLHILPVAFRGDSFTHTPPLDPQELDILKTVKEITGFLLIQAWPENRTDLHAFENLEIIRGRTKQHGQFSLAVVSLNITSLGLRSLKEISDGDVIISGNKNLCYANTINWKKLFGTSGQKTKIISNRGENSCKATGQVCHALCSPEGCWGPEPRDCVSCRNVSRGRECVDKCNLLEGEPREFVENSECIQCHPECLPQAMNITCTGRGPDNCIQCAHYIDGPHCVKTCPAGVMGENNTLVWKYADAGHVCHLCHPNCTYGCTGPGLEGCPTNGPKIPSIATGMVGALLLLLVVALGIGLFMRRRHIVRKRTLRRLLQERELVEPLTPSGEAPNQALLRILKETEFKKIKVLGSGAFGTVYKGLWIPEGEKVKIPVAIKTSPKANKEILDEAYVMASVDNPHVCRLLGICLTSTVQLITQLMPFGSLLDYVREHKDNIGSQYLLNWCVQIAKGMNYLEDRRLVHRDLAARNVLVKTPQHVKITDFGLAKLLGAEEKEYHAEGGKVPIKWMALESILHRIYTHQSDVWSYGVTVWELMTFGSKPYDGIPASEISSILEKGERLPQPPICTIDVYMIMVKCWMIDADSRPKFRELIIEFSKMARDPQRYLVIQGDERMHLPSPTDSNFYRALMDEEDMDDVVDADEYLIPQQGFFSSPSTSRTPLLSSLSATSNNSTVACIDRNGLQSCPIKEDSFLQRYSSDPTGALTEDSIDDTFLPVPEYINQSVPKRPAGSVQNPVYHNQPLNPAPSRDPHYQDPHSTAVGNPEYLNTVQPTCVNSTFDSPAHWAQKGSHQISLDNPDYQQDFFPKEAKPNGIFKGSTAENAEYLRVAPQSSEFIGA
Sequence of EGFR L858R/T790M/C797S (P00533 25-1210 T790M/C797S/L858R): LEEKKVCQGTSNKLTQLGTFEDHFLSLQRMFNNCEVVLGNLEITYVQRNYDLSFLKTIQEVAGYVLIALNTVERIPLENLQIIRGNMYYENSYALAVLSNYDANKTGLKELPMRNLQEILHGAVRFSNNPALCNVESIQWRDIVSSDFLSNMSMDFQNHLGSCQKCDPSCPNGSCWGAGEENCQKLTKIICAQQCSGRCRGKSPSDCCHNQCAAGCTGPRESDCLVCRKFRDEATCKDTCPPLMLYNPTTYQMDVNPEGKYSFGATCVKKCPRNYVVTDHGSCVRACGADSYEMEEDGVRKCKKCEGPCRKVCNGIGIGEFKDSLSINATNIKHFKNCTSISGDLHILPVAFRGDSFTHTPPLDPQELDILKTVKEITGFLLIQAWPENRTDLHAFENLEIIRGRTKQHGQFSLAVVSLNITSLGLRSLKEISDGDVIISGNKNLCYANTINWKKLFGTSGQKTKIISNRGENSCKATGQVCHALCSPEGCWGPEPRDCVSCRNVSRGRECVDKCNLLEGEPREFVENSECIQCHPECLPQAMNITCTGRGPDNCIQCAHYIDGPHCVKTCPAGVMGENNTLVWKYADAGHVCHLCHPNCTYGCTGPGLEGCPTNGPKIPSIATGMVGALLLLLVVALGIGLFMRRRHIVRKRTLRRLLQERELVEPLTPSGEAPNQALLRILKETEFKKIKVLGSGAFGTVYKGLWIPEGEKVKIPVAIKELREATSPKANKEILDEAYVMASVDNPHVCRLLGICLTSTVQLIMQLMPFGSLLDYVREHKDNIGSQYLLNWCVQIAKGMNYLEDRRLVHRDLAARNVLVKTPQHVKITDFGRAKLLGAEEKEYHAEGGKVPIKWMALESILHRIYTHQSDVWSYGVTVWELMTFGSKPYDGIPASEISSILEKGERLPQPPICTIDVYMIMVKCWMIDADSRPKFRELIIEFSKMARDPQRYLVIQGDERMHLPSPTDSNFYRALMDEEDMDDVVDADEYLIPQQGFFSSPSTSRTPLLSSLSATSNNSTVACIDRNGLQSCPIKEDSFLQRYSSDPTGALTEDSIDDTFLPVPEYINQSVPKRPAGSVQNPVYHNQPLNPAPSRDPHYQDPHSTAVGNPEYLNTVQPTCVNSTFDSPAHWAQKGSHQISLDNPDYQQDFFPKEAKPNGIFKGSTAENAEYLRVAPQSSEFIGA

| IC50 (EGFR wildtype; ATP at Km, read-out: IC50 WT, Km ATP) | IC50 (EGFR wildtype; IC50 WT, 100 μM ATP) | IC50 (EGFR L858R/T790M/C797S; ATP at Km, read-out: IC50 L858R/T790M/C797S, Km ATP) | IC50 (EGFR L858R/T790M/C797S; [1]) | IC50 (EGFR L858R/C797S; ATP at Km, read-out: IC50 L858R/C797S, Km ATP) | IC50 (EGFR L858R/C797S; IC50 L858R/C797S, 100 μM ATP) | IC50 (EGFR del19/C797S; ATP at Km, read-out: IC50 del19/C797S, Km ATP) | IC50 (EGFR del19/C797S; IC50 del19/C797S, 100 μM ATP) | IC50 (EGFR del19/T790M/C797S; ATP at Km, read-out: IC50 del19/T790M/C797S, Km ATP) | IC50 (EGFR del19/T790M/C797S; [2]) | IC50 (EGFR wildtype; [3]) | IC50 (EGFR L858R/T790M/C797S; [4]) | IC50 (EGFR L858R/C797S; [5]) | IC50 (EGFR del19/C797S; [6]) | IC50 (EGFR del19/T790M/C797S; [7]) | IC50 (EGFR wildtype; [8]) | IC50 (EGFR L858R/T790M/C797S; [9]) | IC50 (EGFR L858R/C797S; [10]) | IC50 (EGFR del19/C797S; [11]) | IC50 (EGFR del19/T790M/C797S; [12]) | SMILES |
| --- | --- | --- | --- | --- | --- | --- | --- | --- | --- | --- | --- | --- | --- | --- | --- | --- | --- | --- | --- | --- |
| 8.9 nM | 5170 nM | 0.6 nM | 1.1 nM | 4.4 nM | 19.1 nM | 1.4 nM | 9.8 nM | 0.6 nM | 2.6 nM |  |  |  |  |  |  |  |  |  |  | CC(F)(F)c1ccc(-c2cnc(Nc3ccnc(-c4cnn(S(=O)(=O)C5CC5)c4)n3)cc2N[C@H]2CC[C@@](C)(O)CC2)nc1 [Example 292, (1s,4s)-4-((6′-((2-(1-(Cyclopropylsulfonyl)-1H-pyrazol-4-yl)pyrimidin-4-yl)amino)-5-(1,1-difluoroethyl)-[2,3′-bipyridin]-4′-yl)amino)-1-methylcyclohexan-1-ol] |
|  |  |  |  |  |  |  |  |  |  | > 10000 nM | 0.2 nM | 5.4 nM | 0.8 nM | 0.2 nM |  |  |  |  |  | C[C@]1(O)CC[C@@H](Nc2cc(Nc3ccnc(-c4cnn(S(=O)(=O)C5CC5)c4)n3)ncc2-c2ccc(C(F)F)cn2)CC1 [Example 63, (1s,4s)-4-((6′-((2-(1-(Cyclopropylsulfonyl)-1H-pyrazol-4-yl)pyrimidin-4-yl)amino)-5-(difluoromethyl)-[2,3′-bipyridin]-4′-yl)amino)-1-methylcyclohexan-1-ol] |
|  |  |  |  |  |  |  |  |  |  | > 10000 nM | 2 nM | 9160 nM | 1540 nM | 5.6 nM | 222 nM | 0.9 nM | 8480 nM | 66.9 nM | 2.5 nM | O=S(=O)(C1CC1)n1cc(-c2nccc(Nc3cc(N[C@H]4CC[C@H](CCO)CC4)c(-c4ccc(C(F)F)cn4)cn3)n2)cn1 [Example 95, 2-((1r,4r)-4-((6′-((2-(1-(Cyclopropylsulfonyl)-1H-pyrazol-4-yl)pyrimidin-4-yl)amino)-5-(difluoromethyl)-[2,3′-bipyridin]-4′-yl)amino)cyclohexyl)ethan-1-ol] |
|  |  |  |  |  |  |  |  |  |  |  |  |  |  |  | 15.1 nM | 0.3 nM | 1 nM | 2 nM | 0.3 nM | C[C@]1(O)CC[C@@H](Nc2cc(Nc3ccnc(-c4cnn(S(=O)(=O)C5CC5)c4)n3)ncc2-c2cnc(OC3CCOCC3)cn2)CC1 [Example 148, (1s,4s)-4-((2-((2-(1-(Cyclopropylsulfonyl)-1H-pyrazol-4-yl)pyrimidin-4-yl)amino)-5-(5-((tetrahydro-2H-pyran-4-yl)oxy)pyrazin-2-yl)pyridin-4-yl)amino)-1-methylcyclohexan-1-ol] |
|  |  |  |  |  |  |  |  |  |  | > 10000 nM | 0.8 nM | 124 nM | 4.9 nM |  | 23.2 nM | 0.8 nM | 1.1 nM | 2.8 nM | 0.9 nM | C[C@]1(O)CC[C@@H](Nc2cc(Nc3ccnc(-c4cnn(S(=O)(=O)C5CC5)c4)n3)ncc2-c2ccc(N3CCC(F)(F)CC3)nn2)CC1 [Example 68, (1s,4s)-4-((2-((2-(1-(Cyclopropylsulfonyl)-1H-pyrazol-4-yl)pyrimidin-4-yl)amino)-5-(6-(4,4-difluoropiperidin-1-yl)pyridazin-3-yl)pyridin-4-yl)amino)-1-methylcyclohexan-1-ol] |
|  | > 10000 nM |  | 96.9 nM |  | 1950 nM |  | 178 nM |  | 239 nM |  |  |  |  |  |  |  |  |  |  | CC1CCN(S(=O)(=O)c2ccc(-c3cnc(Nc4ccnc(-c5cnn(S(=O)(=O)C6CC6)c5)n4)cc3N[C@H]3CC[C@@H](C(C)(C)O)CC3)nc2)CC1 [Example 187, 2-((1s,4s)-4-((6′-((2-(1-(Cyclopropylsulfonyl)-1H-pyrazol-4-yl)pyrimidin-4-yl)amino)-5-((4-methylpiperidin-1-yl)sulfonyl)-[2,3′-bipyridin]-4′-yl)amino)cyclohexyl)propan-2-ol] |
|  |  |  |  |  |  |  |  |  |  | > 10000 nM | 0.8 nM | 2220 nM | 224 nM | 2 nM | 84.7 nM | 0.7 nM | 27.4 nM | 68 nM |  | O=S(=O)(C1CC1)n1cc(-c2nccc(Nc3cc(N[C@H]4CC[C@H](CCO)CC4)c(-c4cc(C(F)F)ccn4)cn3)n2)cn1 [Example 96, 2-((1r,4r)-4-((6′-((2-(1-(Cyclopropylsulfonyl)-1H-pyrazol-4-yl)pyrimidin-4-yl)amino)-4-(difluoromethyl)-[2,3′-bipyridin]-4′-yl)amino)cyclohexyl)ethan-1-ol] |
